How the values were obtained:
Assay type in all cases: cell-based, human
caspase-8 = test: Caspase-8 level assay in A-549 cells
Description: See Supplementary Materials.
4.2.6. Caspase-8 activation assay […]
caspase8, and lysed with Cell Extraction Buffer. This lysate was diluted in Standard Diluent Buffer over the range of the assay and measured for human active caspase-8 content. (Cells are Plated in a density of 1.2 – 1.8 × 10,000 cells/well in a vo lume of 100µl complete growth medium + 100 ul of the tested compound per well in a 96-well plate for 24 hours before the enzyme assay for Tubulin.). The absorbance of each microwell was read on a spectro-photometer at 450 nm. A standard curve is prepared from 7human Caspase-8 standard dilutions and human Caspase-8 concentration determined. […]

caspase-3 = test: Caspase 3 assay in A-549 cells; conditions: for Caspase-3 Conc: untreated control 66 pg/mL
Description: Caspases play a crucial function in the induction and completion of apoptosis. Caspase-3 is an essential caspase that cleaves different proteins in cells, resulting in apoptosis. […]
4.2.5. Caspase-3 activation assay
Allow all reagents to reach room temperature before use. Gently mix all liquid reagents prior to use. Determine the number of 8-well strips needed for the assay. Insert these in the frame(s) for current use. Add 100 μl of the Standard Diluent Buffer to the zero standard wells. Well(s) reserved for chromogen blank should be left empty. Add 100 μl of standards and controls or diluted samples to the appropriate microtiter wells. The sample dilution chosen should be optimized for each experimental system. Tap gently on side of plate to mix. Cover wells with plate cover and incubate for 2 hours at room temperature. Thoroughly aspirate or decant solution from wells and discard the liquid, Wash wells 4 times. Pipette 100 μl of Caspase-3 (Active) Detection Antibody solution into each well except the chromogen blank(s). Tap gently on the side of the plate to mix. Cover plate with plate cover and incubate for 1 hour at room temperature. Thoroughly aspirate or decant solution from wells and discard the liquid, Wash wells 4 times. Add 100 μl Anti-Rabbit IgG HRP Working Solution to each well except the chromogen blank(s). Prepare the working dilution as described in Preparing IgG HRP. Cover wells with the plate cover and incubate for 30 minutes at room temperature. Thoroughly aspirate or decant solution from wells and discard the liquid. Wash wells 4 times. Add 100 μl of Stabilized Chromoge n to each well. The liquid in the wells will begin to turn blue. Incubate for 30 minutes at room temperature and in the dark. The incubation time for chromogen substrate is often determined by the microtiter plate reader used. Many plate readers have the capacity to record a maximum optical density (O.D.) of 2.0. The O.D. values should be monitored, and the substrate reaction stopped before the O.D. of the positive wells exceeds the limits of the instrument. The O.D. values at 450 nm can only be read after the Stop Solution has been added to each well. If using a reader that records only to 2.0 O.D., stopping the assay after […]
Add 100 μl of Stop Solution to each well. Tap side of plate gently to mix. The solution in the wells should change from blue to yellow. Read the absorbance of each well at 450 nm having blanked the plate reader against a chromogen blank composed of 100 μl each of Stabilized Chromogen and Stop Solution. Read the plate within 2 hours after adding the Stop Solution. Use a curve fitting software to generate the standard curve. A four-parameter algorithm provides the best standard curve fit. Read the concentrations for unknown samples and controls from the standard curve. Multiply value(s) obtained for sample(s) by the appropriate dilution factor to correct for the dilution in step 3. Samples producing signals greater than that of the highest standard should be diluted in Standard Diluent Buffer and reanalyzed.

Bax = Bax level assay in A-549 cells
Description: caspase8, and lysed with Cell Extraction Buffer. This lysate was diluted in Standard Diluent Buffer over the range of the assay and measured for human active caspase-8 content. […]
4.2.7. Bax activation assay
Bring all reagents, except the human Bax-α Standard, to room temperature for at least 30 minutes prior to opening. The human Bax-α Standard solution should not be left at room temperature for more than 10 minutes. All standards, controls and samples should be run in duplicate. Refer to the Assay Layout Sheet to determine the number of wells to be used and put any remaining wells with the desiccant back into the pouch and seal the ziploc. Store unused wells at 4 °C. Pipet 100 μL of Assay Buffer into the S0 (0 pg/mL standard) wells. Pipet 100 μL of Standards #1 through #6 into the appropriate wells. Pipet 100 μL of the Samples into the appropriate wells. Tap the plate gently to mix the contents. Seal the plate and incubate at room temperature on a plate shaker for 1 hour at ~500 rpm. Empty the contents of the wells and wash by adding 400 μL of wash solution to every well. Repeat the wash 4 more times for a total of 5 washes. After the final wash, empty or aspirate the wells and firmly tap the plate on a lint free paper towel to remove any remaining wash buffer.
Pipet 100 μL of yellow Antibody into each well, except the Blank. Seal the plate and incubate at room temperature on a plate shaker for 1 hour at ~500 rpm. Empty the contents of the wells and wash by adding 400 μL of wash solution to every well. Repeat the wash 4 more times for a total of 5 washes. After the final wash, empty or aspirate the wells and firmly tap the plate on a lint free paper towel to remove any remaining wash buffer. Add 100 μL of blue Conjugate to each well, except the Blank. Seal the plate and incubate at room temperature on a plate shaker for 30 minutes […]
Pipet 100 μL of Substrate Solution into each well. Incubate for 30 minutes at room temperature on a plate shaker at ~500 rpm. Pipet 100 μL Stop Sol ution to each well. Blank the plate reader against the Blank wells, read the optical density at 450 nm. Calculate the average net Optical Density (OD) bound for each standard and sample by subtracting the average Blank OD from the average OD for each standard and sample. Using linear graph paper, plot the Average Net OD for each standard versus Bax concentration in each standard. Approximate a straight line through the points.
The concentration of Bax in the unknowns can be determined by interpolation. […]

Bcl-2 = Bcl-2 level assay in A-549 cells
Description: Compounds Va and Vg were explored further for their impact on caspase-8, Bax, and Bacl-2 levels against a human epithelial cancer cell line (A-549) using doxorubicin as a reference. See Supplementary Materials. […]
4.2.8. Bcl-2inhibition assay
Mix all reagents thoroughly without foaming before use. Wash the microwells twice with approximately 300 μL Wash Buffer per well with thorough aspiration of microwell contents between washes. Take caution not to scratch the surface of the microwells. After the last wash, empty the wells and tap microwell strips on absorbent pad or paper towel to remove excess Wash Buffer. Use the microwell strips immediately after washing or place upside down on a wet absorbent paper for not longer than 15 minutes. […] Add 100 μL of Sample […]
Diluent in duplicate to all standard wells and to the blank wells. Prepare standard (1:2 dilution) in duplicate ranging from 32 ng/mL to 0.5 ng/mL. Add 100 μL of Sample Diluent, in duplicate, to the blank wells. Add 80 μL of Sample Diluent, in duplicate, to the sample wells. Add 20 μL of each Sample, in duplicate, to the designated wells. Add 50 μL of diluted biotin-conjugate to all wells, including the blank wells. Cover with a plate cover and incubate at room temperature, on a microplate shaker at 100 rpm if available, for 2 hours. Remove plate cover and empty the wells.
Wash microwell strips 3 times as described in step 2. Add 100 μL of diluted Streptavidin-HRP to all wells, including the blank wells. Cover with a plate cover and incubate at room temperature, on a microplate shaker at 100 rpm if available, for 1 hour. Remove plate cover and empty the wells.
Wash microwell strips 3 times as described in step 2. Proceed to the next step. Pipette 100 μl of mixed TMB Substrate Solution to all wells, including the blanks. Incubate the microwell strips at room temperature (18° to 25°C) for about 15 minutes, if available on a rotator set at 100 rpm.
Avoid direct exposure to intense light. The point, at which the substrate reaction is stopped, is often determined by the ELISA reader. Many ELISA readers record absorbance only up to 2.0
O.D. Therefore, the color development within individual microwells must be watched by the person running the assay and the substrate reaction stopped before positive wells are no longer properly detectable. Stop the enzyme reaction by quickly pipetting 100 μL of Stop Solution into each well, including the blank wells. It is important that the Stop Solution is spread quickly and uniformly throughout the microwells to completely inactivate the enzyme. Results must be read immediately after the Stop Solution is added or within one hour if the microwell strips are stored at 2 - 8°C in the dark. Read absorbance of each microwell on a spectrophotometer using 450 nm as the primary wavelength.

In the case of `COc1cccc2c1C(=O)c1c(O)c3c(c(O)c1C2=O)C[C@@](O)(C(=O)CO)C[C@@H]3O[C@H]1C[C@H](N)[C@H](O)[C@H](C)O1` [Doxorubicin, reference compound], the “Caspase-8 Conc” value (caspase-8; control 0.10) is reported as 1.80 ng/mL, the “Caspase-8 Fold Change” value (caspase-8; vs control) is reported as 18 and the “Caspase-3 Conc” value (caspase-3) is reported as 505 ± 4 pg/mL. The “Caspase-3 Conc” value (caspase-3; listed as doxorubicin) was 505 ± 4.0 pg/mL, the “Caspase-3 Fold Change” value (caspase-3; vs untreated control) was 7.5 and the “Bax Conc” value (Bax; control 9) was 280 pg/mL. The “Bax Fold Change” value (Bax; vs control) was 31, the “Bcl-2 Conc” value (Bcl-2; control 5) was 0.90 ng/mL and the “Bcl-2 Fold Reduction” value (Bcl-2; vs control) was 6.

Reference: publication PMC10385579, “Design, Synthesis, and Biological Evaluation of Indole-2-carboxamides as Potential Multi-Target Antiproliferative Agents” (Pharmaceuticals, 2023)
